Results on 17 molecules are retold here after patent publication US5290553A, “Alkaloids of picralima nitida used for treatment of protozoal diseases” (The United States of America as represented by the …, priority 1991, dated 1994).

For experiment [1] the following is noted: relative to cocaine; cited from earlier work.
A further experiment has as its system malaria. The conditions noted are these: in vivo; cited from earlier work.
Experiment [2] has as its system Plasmodium falciparum D-6 clone (Sierra Leone). The experiment can be described thus: In vitro antimalarial assay, D-6 clone (tritiated hypoxanthine uptake). It counts as cell-based. The conditions noted are these: for IC50: Plasmodium falciparum, read-out: IC50, D-6 Clone. The procedure: (§1) The in vitro assays were performed by using a modification of the semi-automated microdilution technique described earlier in Desjardins et al.^29 and Milhous et al.^30 Two P. falciparum malaria parasite clones, designated as Indochina (W-2) and Sierra Leone (D-6), were utilized in susceptibility testing. The W-2 clone is resistant to chloroquine, pyrimethamine, sulfadoxine, and quinine, and the other clone is resistant to mefloquine. The test extracts were dissolved in dimethylsulfoxide (DMSO) and serially diluted with media. The uptake of tritiated hypoxanthine was used as an index of inhibition of parasite growth.
(§2) Two P. falciparum malaria parasite clones, designated as Indochina (W-2) and Sierra Leone (D-6), were utilized in susceptibility testing. The W-2 clone is resistant to chloroquine, pyrimethamine, sulfadoxine, and quinine, and the other clone is resistant to mafloquine.
(§3) The test extracts were dissolved in DMSO and serially diluted with media. The uptake of tritiated hypoxanthine was used an an index of inhibition of parasite growth.

Experiment [3] relates to Plasmodium falciparum W-2 clone (Indochina). The experiment can be described thus: In vitro antimalarial assay, W-2 clone (tritiated hypoxanthine uptake). In kind it is cell-based. The conditions noted are these: for IC50: Plasmodium falciparum, read-out: IC50, W-2 Clone. As to the method:
as §1, §2, §3

The test system of a further experiment is avian malaria. The conditions noted are these: in vivo; cited from earlier work.
For experiment [4], the system named is Leishmania (Leishmania) chagasi promastigotes (MHOM/BR/84/BA-13). The experiment can be described thus: Growth inhibition of leishmania promastigotes over 96 hours. It counts as cell-based. As to the method: A clinical isolate of visceral Leishmania (Leishmania) chagasi, MHOM/BR/84/BA-13, was used for this study. This isolate was selected because sensitivity to SbV was previously determined using RAM. MHOM/BR/84/BA-13 is sensitive to Pentostam (sodium antimony gluconate) at 6 μg/ml Sb (20 μg/ml drug); and to Glucantime (N-methyl-glucamine antimoniate) at 80 μg/ml Sb (286 μg/ml drug)
Promastigotes of L. chagasi were grown in a serum-free, defined medium, MM2^43. The MM2 medium contained 120 μg/ml protein (10 μg/ml human transferrin, 10 μg/ml human insulin, 100 μg/ml defatted bovine albumin), plus 10 μg/ml low density bovine lipoprotein. […] Cultures were maintained at 25° C. during growth and incubation with drug.
Promastigotes were maintained in log phase growth for 3 successive transfers (48-72 hours apart) prior to radiorespirometric testing. Test extracts (or PBSS plus drug solvent [DMSO], for parallel control cultures) was added 24 hours after the third promastigote transfer to fresh growth medium. Incubation in the presence of plant extracts was continued for 96 additional hours while the parasites remained in mid-log phase growth. The rest of the radiorespirometric procedure was conducted as previously described^45.

Experiment [5] relates to Trypanosoma brucei brucei. Description: In vivo antitrypanosomial activity, mouse. The conditions noted are these: 7 mg i.p.
For experiment [6], the system named is Trypanosoma brucei brucei. Description: In vivo antitrypanosomial activity, rat. The conditions noted are these: 7 mg i.p.
A further experiment deals with opiate receptor. The conditions noted are these: from cell suspension culture of P. nitida; cited from earlier work.
For experiment [7], the system named is W-2 and D-6 clones of Plasmodium falciparum. Description: In vitro antimalarial assay, statements on both clones. In kind it is cell-based. The conditions noted are these: P. falciparum clones. The procedure: as §1
The in vitro assays were performed by using a modification of the semi-automated microdilution technique described earlier (Desjardins et al., 1979; Milhous et al., 1985). Two P. falciparum malaria parasite clones, designated as Indochina (W-2) and Sierra Leone (D-6), were utilized in susceptibility testing. The W-2 clone is resistant to chloroquine, pyrimethamine, sulfadoxine, and quinine, and the other clone is resistant to mafloquine.
as §3

The test system of experiment [8] is Leishmania (Leishmania) chagasi MHOM/BR/84/BA-13. The conditions noted are these: previously determined; cited from earlier work.
[9] abbreviates: Table 5, alkaloids and reference drugs.

Converted amounts (≈) assume the structure as drawn. Read-outs that look alike come from different tables or passages of the source.

For `C/C=C1/CN2CC[C@@]34c5cc(O)ccc5N(C)[C@]35OC[C@@]4(C(=O)OC)[C@@H]1C[C@H]25` [Akuammine], the “local anesthetic action” value in [1] is recorded as “local anesthetic action comparable to that of cocaine”. The “activity in clinical trials” value in the experiment with malaria was “inactive”. The figures for the half-maximal inhibitory concentration (IC50) in experiment [2] (setting [9]) and in [3] (setting [9]) were 0.95 µg/mL (≈ 2.48 µM) and 0.66 µg/mL (≈ 1.73 µM), respectively. In the experiment with avian malaria, the “activity against avian malaria” value is “inactive against avian malaria”.

Turning to `CC=C1CN2CCC34c5ccccc5N(C)C35OCC4(C(=O)OC)C1CC25` (stereo not shown) [.PSI.-Aukuammigine], the results for the IC50 in [2] and in experiment [3] were 0.83 µg/mL (≈ 2.26 µM) and 0.1 µg/mL (≈ 0.273 µM), respectively.

As to `COC(=O)C1=CO[C@@H](C)[C@@H]2C[n+]3ccc4c([nH]c5ccccc54)c3C[C@H]12` [Alstonine], the “inhibition of leishmania promastigotes, ranking” value in experiment [4] (alkaloids isolated from the active fraction) is recorded as “greatest inhibition”. The “concentration of the highest growth inhibition” value in experiment [4] (leishmania promastigotes) came out at 50 µg/mL. For the same molecule, the “growth inhibition, dose relation” value in experiment [4] (leishmania promastigotes) is recorded as “dose related activity”. In addition, the half-inhibitory concentration (IC50) was found to be 0.02 µg/mL in experiment [2] (setting [9]) and 0.09 µg/mL in experiment [3] (setting [9]).

For `N=C(N)c1ccc(N=NNc2ccc(C(=N)N)cc2)cc1` [Berenil], the “Day of 0% Parasite Count” value came out at 6 days in experiment [5] and 8 days in [6].

Regarding `C[C@@H]1CC[C@H]2[C@@H](C)C(=O)O[C@@H]3O[C@@]4(C)CC[C@@H]1[C@]32OO4` [Artemisinin, reference compound], the IC50 in experiment [2] (setting [9]) turned out to be 0.004 µg/mL (≈ 0.0142 µM); in experiment [3] (setting [9]), 0.002 µg/mL (≈ 0.00708 µM).

For `C=C1c2[nH]c3ccccc3c2CCN2CC[C@@H]1/C(=C\C)C2` [pericine], in the experiment on opiate receptor, the “CNS activity, opiate receptor binding” value was “CNS active”.

`CC[C@H]1[C@@H]2C[C@H]3[C@@H]4N(C)c5ccccc5[C@]45C[C@@H]([C@@H]2[C@H]5O)N3[C@@H]1O` [Ajmaline, reference compound]: the IC50 is 4.7 µg/mL (≈ 14.4 µM) in experiment [2] (setting [9]) and 1.24 µg/mL (≈ 3.8 µM) in experiment [3] (setting [9]).

Take `COC(=O)C1=CO[C@@H](C)[C@@H]2CN3CCc4c([nH]c5ccccc45)C3C[C@H]12` (stereo partly shown) [Alstonine (tetrahydro-)]: the IC50 is 2.76 µg/mL (≈ 7.83 µM) in [2] (setting [9]) and 2.86 µg/mL (≈ 8.11 µM) in [3] (setting [9]).

Take `C/C=C1/CN2[C@H]3C[C@H]1[C@@H](CO)[C@@H]2Cc1c3[nH]c2ccc(O)cc12` [Sarpagine, reference compound]: the concentration for half-maximal inhibition (IC50) in experiment [2] (setting [9]) turned out to be 16.6 µg/mL (≈ 53.6 µM); in experiment [3] (setting [9]), 29.2 µg/mL (≈ 94 µM).

As to `CC=C1CN2C3CC1C(CO)C2Cc1c3[nH]c2ccccc12` (stereo not shown) [PNF-S7], the results for the IC50 in experiment [2] (setting [9]) and in experiment [3] (setting [9]) were 7.6 µg/mL (≈ 25.8 µM) and 10.6 µg/mL (≈ 36 µM), respectively.

For the molecule `C/C=C1/C[N@+]2(C)CC[C@@]34c5ccccc5N[C@]32[C@@H](O)C[C@@H]1[C@@]4(CO)C(=O)OC` [Echitamine, reference compound], the “IC50, D-6 Clone” value in experiment [2] (setting [9]) came to 4.68 µg/mL. Besides, the “IC50, W-2 Clone” value in experiment [3] (setting [9]) is 7.25 µg/mL. The “antimalarial activity in vitro” value in [7] is “no activity”.

As to `COC(=O)[C@@H]1[C@H]2C[C@H]3c4[nH]c5ccccc5c4CCN3C[C@@H]2CC[C@@H]1O` [Yohimbine, reference compound], the IC50 is 7.51 µg/mL (≈ 21.2 µM) in experiment [2] and 6.16 µg/mL (≈ 17.4 µM) in [3].

On to sodium antimony gluconate [Pentostam], for which, in experiment [8], the “concentration at which isolate is sensitive, as Sb” value is 6 μg/ml Sb and the “concentration at which isolate is sensitive, as drug” value is listed as 20 μg/ml drug.

`CC=C1CN2C3CC45c6ccccc6NC4(O3)C2CC1C5(COC(C)=O)C(=O)OC` (stereo not shown) [Picraline]: the IC50 in experiment [2] (setting [9]) stood at 0.78 µg/mL (≈ 1.9 µM); in experiment [3] (setting [9]), 0.53 µg/mL (≈ 1.29 µM).

As to `C/C=C1/CN2CC[C@]34C(=C(C(=O)OC)[C@H]1C[C@H]23)Nc1ccccc14` [Akuammicine], the IC50 in [2] (setting [9]) stood at 0.45 µg/mL (≈ 1.4 µM); in [3] (setting [9]), 0.73 µg/mL (≈ 2.26 µM).

As to “N-methyl-glucamine antimoniate [Glucantime]”, in [8], the “concentration at which isolate is sensitive, as Sb” value is 80 μg/ml Sb and the “concentration at which isolate is sensitive, as drug” value is listed as 286 μg/ml drug.

As to `CCN(CC)CCCC(C)Nc1ccnc2cc(Cl)ccc12` (stereo not shown) [Chloroquine, reference compound], the results for the IC50 in [2] and in experiment [3] were 0.006 µg/mL (≈ 0.0188 µM) and 0.04 µg/mL (≈ 0.125 µM), respectively.

Usually IC50 stands for the concentration at which inhibition is half-maximal.
